# From patent publication US8618151B2, “Inhibitors of HCV NS5A” (Presidio Pharmaceuticals, Inc., priority 2008, dated 2013)
# Test system: HCV genotype 1b replicon
# Test: HCV replicon assay (1b_Huh-Luc/Neo-ET cell line, luciferase readout)
# Type: cell-based
# Details: Hepatitis C virus, Huh-7, 72 h, read-out: Inhibition of HCV genotype 1b
# Method: Biological activity of the compounds of the invention was determined using an HCV replicon assay. The 1b_Huh-Luc/Neo-ET cell line persistently expressing a bicistronic genotype 1b replicon in Huh 7 cells was obtained from ReBLikon GMBH. This cell line was used to test compound inhibition using luciferase enzyme activity readout as a measurement of compound inhibition of replicon levels.
# On Day 1 (the day after plating), each compound is added in triplicate to the cells. Plates incubated for 72 h prior to running the luciferase assay. Enzyme activity was measured using a Bright-Glo Kit (cat. number E2620) manufactured by Promega Corporation. The following equation was used to generate a percent control value for each compound. % Control=(Average Compound Value/Average Control)*100
# The EC50 value was determined using GraphPad Prism and the following equation: Y=Bottom+(Top−Bottom)/1+10^((Log IC50−X)*HillSlope))
# EC50 values of compounds are repeated several times in the replicon assay.
row,Structure (SMILES),EC50 [nM]
1,CNC(=O)N[C@@H](C(=O)N1CCC[C@H]1c1ncc(-c2ccc(-c3nc4ccc(-c5cnc([C@@H]6CCCN6C(=O)[C@@H](NC(=O)OC)C(C)C)[nH]5)cc4o3)cc2)[nH]1)c1ccccc1 [compound 256],< 1
2,CC(C)(C)OC(=O)N1CCCC1c1ncc(-c2ccc(-c3nc4cc(-c5cnc([C@@H]6CCCN6C(=O)OCc6ccccc6)[nH]5)ccc4s3)cc2)[nH]1 (stereo partly drawn) [compound 250],10 to 999
3,COC(=O)N[C@H](C(=O)N1CCC[C@H]1c1nc(-c2ccc3cc(-c4ccc(-c5cnc([C@@H]6CCCN6C(=O)[C@@H](NC(=O)OC)C6CCOCC6)[nH]5)cc4C)ccc3c2)c[nH]1)C(C)C [compound 86],< 1
4,CCNC(=O)N[C@@H](C(=O)N1CCC[C@H]1c1ncc(-c2ccc3nc(-c4ccc(-c5cnc([C@@H]6CCCN6C(=O)[C@@H](NC(=O)OC)C(C)C)[nH]5)cc4)sc3c2)[nH]1)c1ccccc1 [compound 244],< 1
5,COC(=O)N[C@H](C(=O)N1CCC[C@H]1c1ncc(-c2ccc(-c3nc4ccc(-c5cnc([C@@H]6CCCN6C(=O)[C@H](NC(=O)OC(C)(C)C)c6ccccc6)[nH]5)cc4s3)cc2)[nH]1)C(C)C [compound 242],< 1
6,COC(=O)N[C@H](C(=O)N1CCC[C@H]1c1nc2ccc(-c3ccc4cc(-c5cnc([C@@H]6CCCN6C(=O)[C@@H](NC(=O)OC)C6CCOCC6)[nH]5)ccc4c3)nc2[nH]1)C(C)C [compound 201],< 1
7,COC(=O)N[C@H](C(=O)N1CCC[C@H]1c1ncc(-c2ccc(-c3cc4ccc(-c5cnc([C@@H]6CCCN6C(=O)[C@H](NC(=O)OC6CCOCC6)c6ccccc6)[nH]5)cc4cn3)cc2F)[nH]1)C(C)C [compound 156],< 1
8,COC(=O)N[C@H](C(=O)N1CCC[C@H]1c1nc(-c2ccc3cc(-c4ccc(-c5cnc([C@@H]6CCCN6C(=O)[C@H](NC(=O)OC)c6ccccc6)[nH]5)cc4)ccc3c2)c[nH]1)C(C)C [compound 8],< 1
9,COC(=O)N[C@H](C(=O)N1C[C@H](O)C[C@H]1c1ncc(-c2ccc(-c3ccc4cc(-c5cnc([C@@H]6CCCN6C(=O)[C@@H](NC(=O)OC)C6CCOCC6)[nH]5)ccc4n3)cc2)[nH]1)C(C)C [compound 147],< 1
10,CNC(=O)N[C@@H](C(=O)N1CCC[C@H]1c1nc(-c2ccc3nc(-c4ccc(-c5cnc([C@@H]6CCCN6C(=O)[C@@H](NC(=O)OC)C(C)C)[nH]5)cc4)ccc3c2)c[nH]1)c1ccccc1 [compound 36],< 1
11,COC(=O)N[C@@H](C)C(=O)N1CCC[C@H]1c1nc(-c2ccc3nc(-c4ccc(-c5cnc([C@@H]6CCCN6C(=O)[C@@H](NC(=O)OC)C(C)C)[nH]5)cc4)ccc3c2)c[nH]1 [compound 41],< 1
12,COC(=O)N[C@H](C(=O)N1CCC[C@H]1c1ncc(-c2ccc(-c3ccc4cc(-c5c[nH]c([C@@H]6CCCN6C(=O)[C@@H](NC(=O)OC)C6CCOCC6)n5)ccc4c3)nc2)[nH]1)C(C)C [compound 52],< 1
13,COC(=O)N[C@H](C(=O)N1CCC[C@H]1c1ncc(-c2ccc3nc(-c4ccc(-c5cnc([C@@H]6C[C@@H](O)CN6C(=O)[C@@H](NC(=O)OC)C(C)C)[nH]5)cc4)ccc3c2)[nH]1)C(C)C [compound 146],< 1
14,COC(=O)N[C@H](C(=O)N1CCC[C@H]1c1nc(-c2ccc3cc(-c4ccc(-c5cnc([C@@H]6CCCN6C(=O)[C@@H](NC(=O)OC)C(C)C)[nH]5)cc4)ccc3n2)c[nH]1)C(C)C [compound 102],< 1
15,COC(=O)N[C@H](C(=O)N1CCC[C@H]1c1nc2ccc(-c3ccc4cc(-c5cnc([C@@H]6CCCN6C(=O)[C@@H](NC(=O)OC)C6CCOCC6)[nH]5)ccc4c3)cc2[nH]1)C(C)C [compound 190],< 1
16,COC(=O)N[C@H](C(=O)N1CCC[C@H]1c1nc(-c2ccc3cc(-c4ccc(-c5cnc([C@@H]6CCCN6C(=O)[C@H](NC(=O)OC)c6ccsc6)[nH]5)cc4)ccc3c2)c[nH]1)C1CCOCC1 [compound 110],< 1
17,COC(=O)N[C@H](C(=O)N1CCC[C@H]1c1nc(-c2ccc3c(c2)CCN(c2c(F)cc(-c4cnc([C@@H]5CCCN5C(=O)[C@@H](NC(=O)OC)C(C)C)[nH]4)cc2F)C3)c[nH]1)C(C)C [compound 269],< 1
18,COC(=O)N[C@H](C(=O)N1CCC[C@H]1c1ncc(-c2ccc3cc(-c4ccc5nc([C@@H]6CCCN6C(=O)[C@@H](NC(=O)OC)C(C)C)[nH]c5c4)ccc3c2)[nH]1)C(C)C [compound 174],< 1
19,CNC(=O)N[C@@H](C(=O)N1CCC[C@H]1c1ncc(-c2ccc(-c3cc4ccc(-c5cnc([C@@H]6CCCN6C(=O)[C@@H](NC(=O)OC)C6CCOCC6)[nH]5)cc4cn3)cc2)[nH]1)c1ccccc1 [compound 144],< 1
20,COC(=O)N[C@H](C(=O)N1CCC[C@H]1c1ncc(-c2ccc(-c3ccc4cc(-c5c[nH]c([C@@H]6CCCN6C(=O)[C@@H](NC(=O)OC)C6CCOCC6)n5)ccc4c3)c(C)c2)[nH]1)C(C)C [compound 104],< 1
21,COC(=O)N[C@H](C(=O)N1CCC[C@H]1c1ncc(-c2cnc3cc(-c4ccc5nc([C@@H]6CCCN6C(=O)[C@H](NC(=O)OC)c6ccccc6)[nH]c5c4)ccc3c2)[nH]1)C(C)C [compound 188],1 to 9.9
22,COC(=O)N[C@H](C(=O)N1CCC[C@H]1c1nc(-c2ccc3cc(-c4ccc(-c5cnc([C@@H]6CCCN6C(=O)[C@@H](NC(=O)OC)C6CCOCC6)[nH]5)cc4F)ccc3c2)c[nH]1)C(C)C [compound 65],< 1
23,COC(=O)N[C@H](C(=O)N1CCC[C@H]1c1ncc(-c2ccc3cc(-c4ccc5nc([C@@H]6CCCN6C(=O)[C@@H](c6ccccc6)N(C)C)[nH]c5c4)ccc3c2)[nH]1)C(C)C [compound 177],< 1
24,COC(=O)N[C@H](C(=O)N1CCC[C@H]1c1ncc(-c2ccc3cc(-c4ccc5nc([C@@H]6CCCN6C(=O)[C@@H](NC(=O)OC)[C@@H](C)OC)[nH]c5c4)ccc3c2)[nH]1)[C@@H](C)OC [compound 176],< 1
25,COC(=O)N[C@H](C(=O)N1CCC[C@H]1c1nc(-c2ccc3cc(-c4ccc(-c5cnc([C@@H]6CCCN6C(=O)[C@@H](NC(=O)OC)C6CCOCC6)[nH]5)nc4)ccc3c2)c[nH]1)C(C)C [compound 84],< 1
26,COC(=O)N[C@H](C(=O)N1CCC[C@H]1c1ncc(-c2ccc(-c3nc4ccc(-c5cnc([C@@H]6CCCN6C(=O)[C@H](NC(=O)OC(C)(C)C)c6ccccc6)[nH]5)cc4o3)cc2)[nH]1)C(C)C [compound 247],< 1
27,COC(=O)N[C@@H](C(=O)N1CCC[C@H]1c1nc(-c2ccc3nc(C4CCC(c5cnc([C@@H]6CCCN6C(=O)[C@H](NC(=O)OC)c6ccccc6)[nH]5)CC4)ccc3c2)c[nH]1)c1ccccc1 (stereo partly drawn) [compound 286],< 1
28,COC(=O)N[C@H](C(=O)N1CCC[C@H]1c1ncc(-c2ccc(-c3ccc4cc(-c5c[nH]c([C@@H]6CCCN6C(=O)[C@H](NC(=O)NC(C)(C)C)c6ccccc6)n5)ccc4c3)cc2)[nH]1)C(C)C [compound 23],< 1
29,COC(=O)N[C@H](C(=O)N1CCC[C@H]1c1ncc(-c2ccc(-c3ccc4cc(-c5c[nH]c([C@@H]6CCCN6C(=O)[C@@H](NC(=O)OC)C6CCOCC6)n5)ccc4n3)cc2)[nH]1)C(C)C [compound 39],< 1
30,COC(=O)N[C@H](C(=O)N1CCC[C@H]1c1nc(-c2ccc3nc(-c4ccc(-c5cnc([C@@H]6CCCN6C(=O)[C@H](NC(=O)OC)c6ccccc6)[nH]5)cc4)ccc3c2)c[nH]1)C(C)C [compound 26],< 1
